What was measured:
[1] = Comparison of fine particle dose (FPD) performance of blended combination, layer filled combination and baseline products; format: physicochemical; details: FIG. 6; product T3 (low shear triple blend)
Procedure: The two options were to either: 1) layer fill blends of the individual products or; 2) low shear mix blends of the individual products. The individual products were either 0.58% w/w salmeterol xinafoate/4% w/w fluticasone propionate combination blend or 4.8% w/w 5-[3-(3-Hydroxyphenoxy)azetidin-1-yl]-5-methyl-2,2-diphenylhexanamide hydrochloride blend.
Four products (L1, L2, L3, and T3) were prepared as outline below. Products L1 and L2 were the baseline products for the layer filled combination product L3, and the blended combination product, T3.
The blend is made of 4.8% w/w 5-[3-(3-Hydroxyphenoxy)azetidin-1-yl]-5-methyl-2,2-diphenylhexanamide hydrochloride mixed with lactose monohydrate in a Diosna high shear blender. The nominal dose of 5-[3-(3-Hydroxyphenoxy)azetidin-1-yl]-5-methyl-2,2-diphenylhexanamide hydrochloride per pocket is 264 mcg.
The blend is made of 0.58% w/w salmeterol xinafoate and 4% w/w fluticasone propionate mixed with lactose monohydrate in a Diosna high shear blender. The nominal doses of salmeterol xinafoate and fluticasone propionate per pocket are 72.5 mcg and 500 mcg, respectively.
The salmeterol xinafoate/fluticasone propionate blend is made of 0.58% w/w salmeterol xinafoate and 4% w/w fluticasone propionate mixed with lactose monohydrate in a Diosna high shear blender. The 5-[3-(3-Hydroxyphenoxy)azetidin-1-yl]-5-methyl-2,2-diphenylhexanamide hydrochloride blend is made of 4.8% w/w 5-[3-(3-Hydroxyphenoxy)azetidin-1-yl]-5-methyl-2,2-diphenylhexanamide hydrochloride mixed with lactose monohydrate in a Diosna high shear blender. The nominal doses of salmeterol xinafoate, fluticasone propionate and 5-[3-(3-Hydroxyphenoxy)azetidin-1-yl]-5-methyl-2,2-diphenylhexanamide hydrochloride per pocket are 72.5 mcg, 500 mcg and 264 mcg, respectively.
The triple blend is prepared by mixing with a low shear Turbula mixer, a 0.58% w/w salmeterol xinafoate, 4% w/w fluticasone propionate blend with 4.8% w/w 5-[3-(3-Hydroxyphenoxy)azetidin-1-yl]-5-methyl-2,2-diphenylhexanamide hydrochloride blend in the ratio 12.5:5.5. […]

[2] = Aerosolization performance: TIR and FPM from a next generation impactor (NGI), equivalence of MGR001/MGR002 with MGR003; format: physicochemical; details: for FPM, Pass/fail (0.90-1.11) / TIR, Pass/fail (0.90-1.11): 90% CI of ratio of geometric means within 0.90-1.11
Excerpt: The same batches for MGR002 and MGR003 were utilized in obtaining emitted data used to obtain aerosolization performance information. Table 5 below presents the results and equivalence criteria, respectively for 5-[3-(3-Hydroxyphenoxy)azetidin-1-yl]-5-methyl-2,2-diphenylhexanamide hydrochloride of formula II, fluticasone propionate and salmeterol.
The […] (FPM) and mean total impactor recovery (TIR) from a next generation impactor (NGI) for each batch were equivalent, based on the fact that the upper/lower 90% confidence interval of the ratio of the geometric mean, rested between 0.90 and 1.11. […] The fluticasone propionate and salmeterol xinafoate components of the MGR003 drug product also met the same performance targets as the MGR001 250/50 drug product.

[3] = FPM from next generation impactor
[4] = mean total impactor recovery, next generation impactor

## CC(C)(CCC(C(N)=O)(c1ccccc1)c1ccccc1)N1CC(Oc2cccc(O)c2)C1.Cl [5-[3-(3-Hydroxyphenoxy)azetidin-1-yl]-5-methyl-2,2-diphenylhexanamide hydrochloride]
[1]
  FPD of the individual drug in blended combination product T3 versus baseline product: much lower FPD
[2]; [3]
  FPM, ratio of geometric means (MGR002 divided by MGR003): 0.95
[2]; MGR002 versus MGR003
  FPM, Pass/fail (0.90-1.11): Pass
  TIR, Pass/fail (0.90-1.11): Pass
[2]; [4]
  TIR, ratio of geometric means (MGR002 divided by MGR003): 0.97

## CCC(=O)O[C@]1(C(=O)SCF)[C@H](C)C[C@H]2[C@@H]3C[C@H](F)C4=CC(=O)C=C[C@]4(C)[C@@]3(F)[C@@H](O)C[C@@]21C [Fluticasone propionate, fluticasone propionate]
[1]
  FPD of the individual drug in blended combination product T3 versus baseline product: slightly lowered FPD
[2]; [3]
  FPM, ratio of geometric means (MGR001 divided by MGR003): 0.99
[2]; MGR001 versus MGR003
  FPM, Pass/fail (0.90-1.11): Pass
  TIR, Pass/fail (0.90-1.11): Pass
[2]; [4]
  TIR, ratio of geometric means (MGR001 divided by MGR003): 0.96

## OCc1cc(C(O)CNCCCCCCOCCCCc2ccccc2)ccc1O (stereo not drawn) [Salmeterol, salmeterol xinafoate]
[1]
  FPD of the individual drug in blended combination product T3 versus baseline product: more variability
[2]; [3]
  FPM, ratio of geometric means (MGR001 divided by MGR003): 1.01
[2]; MGR001 versus MGR003
  FPM, Pass/fail (0.90-1.11): Pass
  TIR, Pass/fail (0.90-1.11): Pass
[2]; [4]
  TIR, ratio of geometric means (MGR001 divided by MGR003): 0.97
